Assay results taken from patent US20240092779A1, “USP1 INHIBITORS AND USES THEREOF” (Zentaur Therapeutics USA Inc., priority 2022, published 2024).
Values after ≈ are worked out from the molar mass of the structure shown.

Assays:
[1] = target: T1, recombinant USP1/UAF1 enzyme complex (Homo sapiens, UniProt O94782); assay: Enzyme assay: deubiquitinase fluorometric assay with ubiquitin-Rhodamine substrate; assay type: biochemical; conditions: USP1/UAF1, Ub-Rho110 substrate, 2 hours preincubation, 1 hour reaction
T1 construct: purchased Biortus
T1 sequence (O94782 whole entry): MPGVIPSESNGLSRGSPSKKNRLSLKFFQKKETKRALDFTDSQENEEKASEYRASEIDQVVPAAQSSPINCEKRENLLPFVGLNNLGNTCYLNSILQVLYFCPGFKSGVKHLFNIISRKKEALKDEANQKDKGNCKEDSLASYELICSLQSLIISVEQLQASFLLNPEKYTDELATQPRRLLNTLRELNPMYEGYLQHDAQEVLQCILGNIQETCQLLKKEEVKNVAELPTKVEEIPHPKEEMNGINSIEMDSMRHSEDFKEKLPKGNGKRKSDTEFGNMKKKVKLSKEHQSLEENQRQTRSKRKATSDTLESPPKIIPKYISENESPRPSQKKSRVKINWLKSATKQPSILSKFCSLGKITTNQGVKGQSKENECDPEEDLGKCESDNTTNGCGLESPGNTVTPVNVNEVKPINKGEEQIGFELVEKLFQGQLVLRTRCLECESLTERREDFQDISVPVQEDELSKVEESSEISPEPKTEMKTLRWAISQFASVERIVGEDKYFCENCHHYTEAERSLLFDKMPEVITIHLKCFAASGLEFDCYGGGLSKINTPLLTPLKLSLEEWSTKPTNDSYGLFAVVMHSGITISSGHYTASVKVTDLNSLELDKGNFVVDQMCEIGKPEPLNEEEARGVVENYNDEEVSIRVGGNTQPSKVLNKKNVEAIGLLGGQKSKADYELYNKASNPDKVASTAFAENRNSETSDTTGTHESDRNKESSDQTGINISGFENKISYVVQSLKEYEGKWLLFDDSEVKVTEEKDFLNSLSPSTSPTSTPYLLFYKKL
T1 sequence (Q8TAF3 whole entry partner): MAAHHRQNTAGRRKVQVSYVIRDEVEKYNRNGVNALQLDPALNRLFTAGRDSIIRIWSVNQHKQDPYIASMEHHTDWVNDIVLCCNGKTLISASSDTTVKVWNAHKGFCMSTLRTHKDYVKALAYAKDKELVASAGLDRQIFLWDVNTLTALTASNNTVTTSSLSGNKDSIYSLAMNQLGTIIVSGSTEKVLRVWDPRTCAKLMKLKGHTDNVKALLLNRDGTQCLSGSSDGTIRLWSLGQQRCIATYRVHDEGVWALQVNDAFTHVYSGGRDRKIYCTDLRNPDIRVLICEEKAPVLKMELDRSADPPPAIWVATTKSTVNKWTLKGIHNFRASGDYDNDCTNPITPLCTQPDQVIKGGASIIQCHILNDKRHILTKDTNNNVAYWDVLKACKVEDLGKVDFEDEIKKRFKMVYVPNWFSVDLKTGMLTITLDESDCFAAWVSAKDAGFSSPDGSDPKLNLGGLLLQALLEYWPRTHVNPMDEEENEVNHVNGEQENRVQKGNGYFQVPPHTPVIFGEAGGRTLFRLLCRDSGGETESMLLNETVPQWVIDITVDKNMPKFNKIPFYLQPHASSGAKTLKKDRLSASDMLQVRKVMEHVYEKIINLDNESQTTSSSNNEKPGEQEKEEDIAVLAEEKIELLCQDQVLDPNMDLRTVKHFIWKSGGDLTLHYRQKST
Procedure: Enzymatic inhibitory potency of the compounds was assessed in a deubiquitinase fluorometric assay using ubiquitin-Rhodamine (Ub-Rho110, R&D Systems) as substrate and the recombinant USP1/UAF1 enzyme complex (Biortus). Assays were performed in a final volume of 12 μL using black 384-well plates (Corning #4514) containing 50 mM HEPES (pH 7.5, BioRoYee), 0.5 mM EDTA, 1 mM dithiothreitol, 0.1 mg/mL bovine serum albumin, 50 nM Ub-Rhol10, 0.004 nM USP1/UAF1, and series diluted compounds from 10 μM to 0.5 nM (10 dilution steps). Assay-ready plates containing 40 nL of Echo-dispensed compound in DMSO were reconstituted with 2 μL of ddH2O, then 5 μL of USP1/UAF1 enzyme mixture was added and preincubated at room temperature for 2 hours. Enzymatic reaction was initiated by the addition of […] substrate mixture and assay allowed to proceed for 1 hour at room temperature before quenching with 3 μL of 150 mM citric acid. Fluorescence signal was detected via TECAN SPARK with excitation at 485 nm and emission at 535 nm. Data analysis was done using GraphPad Prism8 and IC50 values were obtained by 4-parameter logistic curve fitting.
(§1) Certain compounds were tested in the assays.

MDA-MB-436 cells = assay: CTG Protocol (MDA-MB-436 GI50), antiproliferative activity; assay type: cell-based, human; conditions: Homo sapiens, 168 h; MDA-MB-436 cells (BRCA1 mutation), 7-day incubation, CellTiter-Glo
Procedure: CTG Protocol (MDA-MB-436 GI50)
Antiproliferative activity of USP1 inhibitors was determined using breast cancer cell line MDA-MB-436 that harbors BRCA1 mutation. MDA-MB-436 cells (ATCC, HTB-130) was seeded with a seeding density of 1000 cells per well and 95 μL DMEM medium (Gibco, 10566016) into 96-well cell plates (Corning, 3610), and incubated overnight at 37° C. and 5% CO2. Compounds were solubilized in DMSO (Solarbio, D8371) as 10 mM stock solution, and then series diluted (3 folds) with DMSO for 9-point dose-response testing. The resulted series dilutions were then jump-diluted 50-fold by cell culture medium to afford the 20×stock solutions (containing 2% DMSO). Treatment was initiated by adding 5 μL of 20×stock solution to the assay plate and incubated at 37° C. and 5% CO2. At the end of 7-day incubation, cell assay plates were removed from incubation and equilibrated to room temperature (20 min). Then 100 μL of CellTiter-Glo (Promega, G9243) reagent, prepared per manufacturer's protocol, was added to each well, and the resulted plates were centrifuged 1,000 rpm for 1 minute, incubated at room temperature in the dark for 20 minutes, sealed with Perkin Elmer sticky film, and the luminescence signal read by Envision (Perkin Elmer).
Data analysis • a) % Inhibition was calculated using following equation: […]
X: compound concentration; Y: % Inhibition
as §1

[2] = Solubility in FaSSIF (Fasted State Simulated Intestinal Fluid); assay type: physicochemical; conditions: kinetic from dmso stock, FaSSIF pH 6.5, 25° C.
Procedure: Solubility in FaSSIF (Fasted State Simulated Intestinal Fluid)
Certain Compounds of the Disclosure were assessed for the apparent solubility in FaSSIF.
0.420 g of NaOH, 3.438 g of NaH2PO4 and 6.186 g of NaCl were dissolved into about 900 mL ultrapure water. The solution was adjusted to the pH of 6.5 with 1N NaOH or 1N HCl. The solution was then diluted with ultrapure water to 1000 mL at room temperature. The resulting solution is used as buffer solution.
2.240 g of FaSSIF Powder was added to about 500 mL of above-mentioned buffer solution. The solution was stirred until powder was completely dissolved. Then the solution was diluted with buffer A to 1000 mL at room temperature. This solution is FaSSIF to be used in the following experiment.
15 μL of stock solution (10 mM) of each sample was placed into their proper 96-well rack. 485 μL of FaSSIF was added into each vial of the cap-less solubility sample plate. One stir stick was added to each vial and the vial was sealed using a molded PTFE/Silicone plug. The solubility sample plate was transferred to the Eppendorf Thermomixer Comfort plate shaker and shaked at 25° C. at 1100 RPM for 2 hours. After completion of the 2 hours, the stir sticks using a big magnet were removed. The samples from the solubility sample plate were transferred into the filter plate. Using the vacuum manifold, all the samples are filtered. Aliquot of 5 μL was taken from filtrate followed by addition of 5 μL DMSO and 490 μL of a mixture of H2O and acetonitrile containing internal standard (1:1).
3 μM Standards solution (STD) was prepared from the 10 mM DMSO STD plate.as following: transferring 6 μL into the remaining empty plate, adding 194 μL of DMSO to that plate to have a STD concentration of 300 μM. From the 300 μM DMSO STD plate, 5 μL solution was transferred into the remaining empty plate. Addition of 5 μL PBS and 490 μL of a mixture of H2O and acetonitrile containing internal standard (1:1) to that plate furnished a final STD concentration of 3 μM STD solution.
The samples are analyzed and quantified against the standard of known concentration using LC/MS/MS, calculating the solubility of the test compound as following (DF means the dilution factor):
[Sample solubility in FsSSIF (04)]=Area Ratio sample×DF sample×[STD]/Area Ratio STD

[3] = Liver microsomal stability (HLM); assay type: in vitro ADME; conditions: human, liver microsomes, human liver microsomes 0.5 mg/mL, 1 μM compound, NADPH
Procedure: Liver Microsomal Stability
Certain Compounds of the Disclosure were assessed for ADME metabolic stability in human liver microsomes (HLM).
Samples were prepared by adding 222.5 μL of a master solution (100 mM phosphate buffer and 0.5 mg/mL liver microsomes (HLM)) and 25 μL of a 10 mM NADPH solution to incubation plates, which were then warmed for 10 min. Each compound was separately dissolved in DMSO to prepare 10 mM stock solutions, which were then diluted to 100 μM with acetonitrile. A reaction was started by adding 2.5 μL of the […] solution of each compound to separate incubation plates such that the final concentration of for each compound in each plate was 1 μM. Aliquots of 30 μL were taken from the reaction solution at 0.5, 5, 15, 30 and 60 minutes. The reaction was stopped by the addition of 5 volumes of cold acetonitrile with IS (100 nM alprazolam, 200 nM caffeine and 100 nM tolbutamide). Aliquot of 100 μL of the supernatant was diluted by 100 μL ultra-pure water, and the mixture was used for LC/MS/MS analysis. Peak areas were determined from extracted ion chromatograms. […]. The percentage of remaining parent was calculated from peak area of test compound or PC. The slope value, k, is determined by linear regression of the natural logarithm of percent parent remaining vs. incubation time curve. All calculations are carried out using Microsoft Excel.
The in vitro half-life (in vitro t1/2) is determined from the slope value:
Conversion of the in vitro t1/2 (in min) into the in vitro intrinsic clearance (in vitro CLint, (HLM Clint (μL/min/mg proteins))) is done using the following equation: […]
A: HLM Clint <10 μL/min/mg; B: 10 μL/min/mg≤HLM Clint <50 μL/min/mg; C: HLM Clint ≥50 μL/min/mg.

| Compound | IC50 [1] [nM] | GI50 (MDA-MB-436 cells) [nM] | solubility at 2 h [2] [µM] | microsomal CLint at 1 μM [3] [µL/min/mg] |
| --- | --- | --- | --- | --- |
| COc1ncnc(C2CC2)c1-c1ncc2cc(Br)c(=O)n(Cc3ccc(-c4nc(C(F)(F)F)cn4C)cc3)c2n1 [Compound I-40] | 10 to 100 | 10 to 100 | – | – |
| COc1ncnc(OC)c1-c1ncc2ccc(=O)n(Cc3ccc(-c4nc(C(F)(F)F)cn4C4CC4)cc3)c2n1 [Compound I-102] | – | – | ≥ 100 | 10 to 50 |
| COc1ncnc(C2CC2)c1-c1ncc2c(C)c(-c3cnn(C)c3)c(=O)n(Cc3ccc(-c4nc(C(F)(F)F)cn4C4CC4)cc3)c2n1 [Compound I-128] | – | – | 10 to 100 (≈ 6.54 to 65.4 µg/mL) | < 10 |
| COc1ncnc(C2CC2)c1-c1ncc2ccc(=O)n(Cc3ccc(-c4nc(C(F)(F)F)cn4C(C)C)cc3)c2n1 [Compound I-4, 2-(4-Cyclopropyl-6-Methoxypyrimidin-5-Yl)-8-({4-[1-Isopropyl-4-(Trifluoromethyl)Imidazol-2-Yl]Phenyl}Methyl)Pyrido[2,3-d]Pyrimidin-7-One] | – | – | < 10 | < 10 |
| COc1ncnc(C2CC2)c1-c1nc(C)c2ccc(=O)n(Cc3ccc(-c4nc(C(F)(F)F)cn4C4CC4)cc3)c2n1 [Compound I-135] | – | – | ≥ 100 | < 10 |
| COc1ncnc(C2CC2)c1-c1ncc2cc(C3CCN(C)CC3)c(=O)n(Cc3ccc(-n4nc(C(F)(F)F)cc4C)cc3)c2n1 [Compound I-121] | – | – | ≥ 100 | < 10 |
| CCn1cc(C(F)(F)F)nc1-c1ccc(Cn2c(=O)c(C(=O)N(C)C)cc3cnc(-c4c(OC)ncnc4C4CC4)nc32)cc1 [Compound I-39, 2-(4-cyclopropyl-6-methoxypyrimidin-5-yl)-8-({4-[1-ethyl-4-(trifluoromethyl)imidazo]-2-yl]phenylmethyl)-N,N-dimethyl-7-oxopyrido[2,3-d]pyrimidine-6-carb oxamide] | 10 to 100 | 10 to 100 | – | – |
| COc1ncnc(C2CC2)c1-c1ncc2cc(-c3cnc(C)nc3)c(=O)n(Cc3ccc(-c4nc(C(F)(F)F)cn4C4CC4)cc3)c2n1 [Compound I-140] | – | – | ≥ 100 | < 10 |
| COc1ncnc(C2CC2)c1-c1ncc2cc(-c3c(C)cnn3C)c(=O)n(Cc3ccc(-c4nc(C(F)(F)F)cn4C4CC4)cc3)c2n1 [Compound I-133] | – | – | 10 to 100 (≈ 6.54 to 65.4 µg/mL) | 10 to 50 |
